We go through one molecule from patent US20240245633A1, “ROR Gamma Agonists as Enhancers of Protective Immunity” (University of Florida Research Foundation, Incorporated, priority 2015, published 2024).

Test [1] addresses T1, Gal4-RORγ (Homo sapiens, UniProt P51449).
T1 sequence (P51449 269-508 limits assumed): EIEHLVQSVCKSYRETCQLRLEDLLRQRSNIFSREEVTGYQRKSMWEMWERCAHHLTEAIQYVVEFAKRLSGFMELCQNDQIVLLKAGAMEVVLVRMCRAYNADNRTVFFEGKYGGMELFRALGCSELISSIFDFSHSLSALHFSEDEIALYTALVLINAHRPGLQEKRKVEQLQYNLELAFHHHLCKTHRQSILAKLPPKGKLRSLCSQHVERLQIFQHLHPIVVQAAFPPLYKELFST
Briefly: cell-based. As to conditions: HEK-293T, read-out: fold induction of reporter gene expression.

The subject of test [2] is differentiated TH17 cells. Briefly: TH17 cell differentiation, flow cytometry. Format: cell-based, murine. The settings on record: murine TH17 cells. How it is done:
(§1) Using flow cytometery surface PD-1 expression was analyzed to determine if the decrease in gene expression of PD-1 correlates to a decrease of the protein on the cell surface, Cell: surface PD-1 expression was measured in murine and human T cell lines as well as in ex vivo differentiated murine TH17 cells. […] Next we examined the impact of compound treatment on differentiated murine TH17 cells. […] To determine if there was an increase in the active T cell population during TH17 cell differentiation, the population of CD62L^−PD1^− double negative cells was measured using flow cytometry. […] To determine if the effects of SR0987 on PD-1 expression would be observed in a human cell line, Jurkat T cells were treated with the compound.
TH17 cell differentiation. For naïve T cell differentiation, CD4^+T cells were enriched by negative selection using a magnetic-activated cell sorter kit (Millipore). Enriched CD4+ T cells activated with 5 μg/mL of plate-abound anti CD3 antibody and 1 μg/mL of anti-CD28 antibody in the presence of 20 μg/mL of anti-IFNγ, 20 μg/mL of anti-IL-4, 1 ng/mL of TGFβ, AND 10 ng/mL of IL-6. Four-five days post differentiation, all cells were stimulated for 5 hr with 5 ng/mL of phorbol-12-myristate-13-acetate (Sigma) and 500 ng/mL of ionomycin (Sigma) contained with brefeldin A solution (eBioscience).
On the technique in general: In flow cytometry, cells or beads pass a laser one at a time.

The next test has as its target T2, full length RORγt (Homo sapiens, UniProt P51449).
T2 construct: full length RORγt was co-transfected along with a luciferase reporter; expressed in transfected cells; host or cells: HEK293T
T2 sequence (P51449 1-497 isoform P51449-2): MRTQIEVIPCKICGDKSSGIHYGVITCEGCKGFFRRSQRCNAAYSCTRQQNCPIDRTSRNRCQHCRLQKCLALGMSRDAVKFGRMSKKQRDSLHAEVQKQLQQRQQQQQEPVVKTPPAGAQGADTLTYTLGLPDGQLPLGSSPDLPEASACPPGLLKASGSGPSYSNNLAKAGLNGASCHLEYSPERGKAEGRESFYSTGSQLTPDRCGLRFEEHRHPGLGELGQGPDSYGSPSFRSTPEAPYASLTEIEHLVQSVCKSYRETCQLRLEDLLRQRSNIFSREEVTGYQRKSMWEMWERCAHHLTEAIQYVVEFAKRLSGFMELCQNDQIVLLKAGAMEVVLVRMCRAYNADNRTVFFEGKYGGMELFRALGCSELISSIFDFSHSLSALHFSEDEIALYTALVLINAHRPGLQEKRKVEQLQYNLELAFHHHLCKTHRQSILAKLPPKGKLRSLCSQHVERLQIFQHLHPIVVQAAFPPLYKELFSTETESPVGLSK
Briefly: Full-length RORγt co-transfection with IL17-Luc reporter in HEK293T cells. As to conditions: 2 μM ursolic acid. Format: cell-based. The text has this: In order to determine if these compounds could modulate RORγt activity in the context of the full-length receptor, we used a co-transfection system in HEK293T cells in which full length RORγt was co-transfected along with a luciferase reporter under the control of either a basic promoter containing five copies of an ROR response element (5×RORE) or a minimal IL17 promoter.

For another test, the system named is EL4 cells. The test is described as follows: PD-1 surface expression in EL4 cells by flow cytometry. As to conditions: compound 48 hr. Format: cell-based, murine. How it is done:
as §1
Gene expression and Cell sorting. Jurkat T cells were pre-incubated with compounds for 48 hr and activated with phorbol 12-myristate 13-acetate (PMA, 50 ng/mL; Sigma) and ionomycin (1 μg/mL; Sigma) for 5 hr. For qPCR, mRNA was isolated with an RNeasy midi kit using DNase I (Qiagen), and cDNA was synthesized with high capacity cDNA Reverse Transcription kit (Applied Biosystems). IL17A, PD-1, and granzyme B gene expression were normalized to the expression of GAPDH. The sequence of primers used in this study are found in Table 2. For cell sorting, activated Jurkat T cells were stained with APC conjugated anti-human PD-1 antibody (eBioscience). […]

Test [3] addresses T1, Gal4-RORγ. As to conditions: 30 μM, 2 μM ursolic acid.

For the molecule `CC(C)=CCC[C@@H](C)[C@H]1CC[C@H]2[C@@H]3CC=C4C[C@@H](O)CC[C@]4(C)[C@H]3CC[C@]12C` [desmosterol], the fold induction at 30 µM on Gal4-RORγ [1] was at least 2. In addition, in test [2], the “IL17 production (intracellular staining of IL17A)” value is reported as “trend towards increased IL17 production” and the “surface PD-1 expression” value is recorded as “no effect”. Moreover, on full length RORγt, the “reporter gene expression, IL17 promoter” value is listed as “minimal induction of the reporter gene”. In the test on EL4 cells, the “surface expression of PD-1” value was “no effect”. Moreover, at Gal4-RORγ [3], the “induction of luciferase expression at highest concentration of the concentration response curve” value is about 2 fold.
